Results on four compounds are retold here after US5061722A, “Cis, endo-2-azabicyclo-[3.3.0]-octane-3-carboxylic acids, a process for their preparation, agents containing these compounds and their use” (Hoechst AG, priority 1981, dated 1991).

Molecules are shown by their SMILES.

Test [1] deals with pressor reaction induced by 310 ng of angiotensin I. In words: Intraduodenal administration to anesthetized rats, ED50. In kind it is in vivo, rat. The procedure: (§1) 1. Intravenous administration to anesthetized rats, 50% inhibition of the pressor reaction induced by 310 ng of angiotensin I, 30 minutes after administration of the dose . . . ED50
2. Intraduodenal administration to anesthetized rats

The subject of test [2] is pressor reaction triggered off by intravenous administration of angiotensin I. In words: Oral administration to conscious rats, inhibition of the pressor reaction triggered off by intravenous angiotensin I. The class given is in vivo, rat. As to conditions: 1 mg/kg.
Test [3] relates to pressor reaction induced by 310 ng of angiotensin I. In words: Intravenous administration to anesthetized rats, 50% inhibition of the pressor reaction induced by 310 ng of angiotensin I. The class given is in vivo. As to conditions: Rattus norvegicus, 0.5 h, 30 minutes after administration of the dose. The procedure:
as §1

The mark [4] stands for this setting: Rattus norvegicus, read-out: ED50.

What is called ED50 is the midpoint of the dose-response relation. `C[C@H](N[C@@H](CC(=O)c1ccccc1)C(=O)OCc1ccccc1)C(=O)N1C(C(=O)O)CC2CCCC21` (relative stereo) [X=C6H5, Y=--, Z=O, R1=CH3, R2=C7H7, N-(1-S-Carbobenzyloxy-3-oxo-3-phenyl-propyl)-S-alanyl-2-cis,endo-azabicyclo-[3.3.0]-octane-3-carboxylic acid] showed an ED50 in test [1] of 0.25 mg/kg.
Take `CCOC(=O)[C@H](CCc1ccccc1)N[C@@H](C)C(=O)N1[C@H](C(=O)O)C[C@@H]2CCC[C@@H]21` [X=C6H5, Y=H, Z=H, R1=CH3, R2=C2H5, N-(1-S-Carbethoxy-3-phenyl-propyl)-S-alanyl-cis,endo-2-azabicyclo-[3.3.0]-octane-3-S-carboxylic acid]: in test [2], the “duration of the 90% inhibition of the pressor reaction” value is “over 6 hours” and the “inhibition of the pressor reaction triggered off by intravenous administration of angiotensin I” value was determined as 90%. Further, in test [3], the ED50 was 0.0083 mg/kg. The ED50 in test [1] (setting [4]) was found to be 0.05 mg/kg.
As for `C[C@H](N[C@@H](CCc1ccccc1)C(=O)O)C(=O)N1[C@H](C(=O)O)C[C@@H]2CCC[C@@H]21` [X=C6H5, Y=H, Z=H, R1=CH3, R2=H, N-(1-S-Carboxy-3-phenyl-propyl)-S-alanyl-cis,endo-2-azabicyclo-[3.3.0]-octane-3-S-carboxylic acid], the ED50 in test [3] came out at 0.0027 mg/kg; in test [1] (setting [4]), 0.6 mg/kg.
With `CCOC(=O)[C@H](CC(=O)c1ccccc1)N[C@@H](C)C(=O)N1[C@H](C(=O)O)C[C@@H]2CCC[C@@H]21` [X=C6H5, Y=--, Z=O, R1=CH3, R2=C2H5, N-(1-S-carbethoxy-3-oxo-3-phenyl-propyl)-S-alanyl-cis,endo-2-azabicyclo-[3.3.0]-octane-3-S-carboxylic acid], the ED50 in test [1] (setting [4]) turned out to be 0.28 mg/kg.
